“Also recorded” adds a separate entry of the source.
Target: T1, 3 × FLAG-tagged HOIP RBR domain in HEK293T cells (Homo sapiens, UniProt Q96EP0)
T1 construct: expressed in transfected cells; host or cells: HEK293T, transient, modified pcDNA3.1(+)
Assay: In-cell labeling, FLAG-IP, tryptic digest and LC-MS/MS
Format: cell-based
Settings: 30 μM, 8 h
Procedure: Transfection and compound treatment
At approximately 40% confluency, as judged by visual inspection by microscope, cells were transfected by mixing Optimem (Gibco) with the relevant pcDNA3.1 construct (3 µg; 3×FLAG HOIP RBR, 3×FLAG HOIP RBR C885A or mock) and FuGENE transfection reagent (9 µL, vortexed prior to use; Promega) respectively. The solutions were mixed thoroughly and incubated at room temperature for 15 min, then added dropwise and the media was swirled gently to ensure homogenous mixing. The cells were incubated at 37 °C (Binder) for 48 h. Fresh DMEM media supplemented with 1% v/v FBS (Biosera) and 1% v/v L-glutamine/penicillin/streptomycin (Sigma-Aldrich) was aliquoted into 15 mL Falcon tubes (typically 8 mL/tube). […]
The lysates were clarified by centrifugation (Heraeus Fresco 17) at 17 000 × g, 4 °C for 20 min and the pellet discarded. The protein concentration was determined using the BCA assay (see […]
The protein concentrations of the clarified lysates were normalized with reaction buffer (50 mM Tris-HCl, pH 7.5, 1.5 mM MgCl2, 150 mM NaCl, 1 mM Na3VO4, complete protease inhibitor) to 1.0 mg/mL (final volume 400 µL, and <0.1% IGEPAL-CA630). […] One set of beads were denatured in 2× LDS loading buffer and analyzed by SDS PAGE and Western blot (FLAG antibody, Supplementary Figure S12) as described in […]

T1 sequence (Q96EP0 697-1072): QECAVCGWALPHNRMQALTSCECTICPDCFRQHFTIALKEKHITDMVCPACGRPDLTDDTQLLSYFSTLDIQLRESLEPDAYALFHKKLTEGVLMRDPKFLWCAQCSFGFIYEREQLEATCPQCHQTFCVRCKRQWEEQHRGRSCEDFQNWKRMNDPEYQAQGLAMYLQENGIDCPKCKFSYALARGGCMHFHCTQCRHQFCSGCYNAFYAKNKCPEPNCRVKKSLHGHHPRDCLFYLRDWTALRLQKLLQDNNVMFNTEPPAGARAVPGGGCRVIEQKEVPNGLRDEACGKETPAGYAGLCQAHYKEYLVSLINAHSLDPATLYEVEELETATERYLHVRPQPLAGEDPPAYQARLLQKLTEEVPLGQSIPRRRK

COC(=O)/C=C/CNC(=O)c1cc2c([nH]c1=O)CCCC2 [Compound 11a]
in-cell labeling of HOIP RBR at C885: significantly labeled; also recorded: significant labeling
